Series [1] concerns T. brucei brucei 427 strain. Nature of the series: Antitrypanosomal activity, Alamar blue assay. In kind it is cell-based. The conditions noted are these: for IC50: Trypanosoma brucei, 24 h, read-out: IC50 T. brucei.
Another series has as its target rhodesain (Trypanosoma brucei rhodesiense, UniProt Q95PM0). Nature of the series: Rhodesain inhibition assay. In kind it is biochemical, T. brucei rhodesiense.
Series [2] can be described thus: Hep G2 cell viability, MTT assay. Format: cell-based. The settings on record: human. For orientation: Formazan colour is commonly taken as a measure of viable cells.

Broadly, the IC50 is the midpoint of a concentration-inhibition curve. A word on the viability: it is a per cent measure of how many cells are alive, often set against a control.

As to `Nc1ccc(-c2nc3ccc(Cc4ccc5nc(-c6ccc(N)cc6)[nH]c5c4)cc3[nH]2)cc1` [Compound 1, 4,4′-[methylenebis(1H-benzimidazole-6,2-diyl)]-dianiline], the IC50 is 5.8 ± 1 µM in series [1] and 0.89 ± 0.1 µM against rhodesain. This compound registered a viability at 72 h, 20 µM in series [2] of 84.7 ± 5.79%.

Consider `O=C(c1ccccc1)c1ccc2[nH]c(-c3ccc(NC(=O)c4ccccc4Cl)cc3)nc2c1` [Compound 7, N-[4-(5-benzoyl-1H-benzimidazol-2-yl)phenyl]-2-chlorobenzamide], for which, in series [1], the “activity against T. brucei (in words)” value was “active” and the 50% inhibitory concentration (IC50) was 2.83 ± 0.26 µM. For the same compound, the “selectivity for the parasite over Hep G2 cells (in words)” value in series [1] (T. brucei vs Hep G2 cells) is listed as “considerable selectivity”. At rhodesain, the half-inhibitory concentration (IC50) was above 20 µM and the “inhibitory activity against rhodesain (in words)” value was “did not display any inhibitory activity”. For the same compound, in series [2], the viability at 72 h, 20 µM was determined as 86.2 ± 9.67%.

Values taken from PMC4715686 (Chemical biology & drug design, 2015).
